In patent publication US20250090498A1, “TREATMENT OF PRIMARY CTLA-4 CHECKPOINT RELATED IMMUNODEFICIENCIES” (ADIENNE PHARMA & BIOTECH SA, priority 2023, published 2025):

Tests used:
[1] = preliminary pharmacokinetics in serum after Eudragit-formulated 3-IAld (90% 3-IAld/10% 13C8-labeled 3-IAld), mass spectrometry; type: in vivo
Method: Primary pharmacodynamics studies have been performed. The mode of action of 3-IAld occurs upon binding to AhR, both in vitro and in vivo. In vitro, 3-IAld induced luciferase activity in the H1L1.1c2 cell line containing a stably-transfected AhR-responsive firefly luciferase at the dose range […] (Zelante et al, 2013). […] Preliminary pharmacokinetics data have been obtained by administration of Eudragit-formulated 3-IAld in the composition 90% 3-IAld/10% 13C8-labeled 3-IAld and targeted/untargeted analysis by mass spectrometry in serum at different times (30 minutes (min), 1 hour (h), 2 h, 4.5h, 6 h, 24h). […] The presence of indole-3-formic acid was also confirmed with labelled 3-IAld (FIG. 13E), showing a similar kinetics and a peak level of about 25 μM at 30 min.

[2] = target: T1, AhR (Homo sapiens, UniProt P35869); test: Cyp1A1 induction in HepG2 liver cancer cell line; type: cell-based; design: endogenous in cells; host or cells: HepG2, A549, Calu-3, CaCo-2; settings: for induction of the AhR activation marker Cyp1A1 (mRNA): between 1 and 100 μM
T1 sequence (P35869 11-848): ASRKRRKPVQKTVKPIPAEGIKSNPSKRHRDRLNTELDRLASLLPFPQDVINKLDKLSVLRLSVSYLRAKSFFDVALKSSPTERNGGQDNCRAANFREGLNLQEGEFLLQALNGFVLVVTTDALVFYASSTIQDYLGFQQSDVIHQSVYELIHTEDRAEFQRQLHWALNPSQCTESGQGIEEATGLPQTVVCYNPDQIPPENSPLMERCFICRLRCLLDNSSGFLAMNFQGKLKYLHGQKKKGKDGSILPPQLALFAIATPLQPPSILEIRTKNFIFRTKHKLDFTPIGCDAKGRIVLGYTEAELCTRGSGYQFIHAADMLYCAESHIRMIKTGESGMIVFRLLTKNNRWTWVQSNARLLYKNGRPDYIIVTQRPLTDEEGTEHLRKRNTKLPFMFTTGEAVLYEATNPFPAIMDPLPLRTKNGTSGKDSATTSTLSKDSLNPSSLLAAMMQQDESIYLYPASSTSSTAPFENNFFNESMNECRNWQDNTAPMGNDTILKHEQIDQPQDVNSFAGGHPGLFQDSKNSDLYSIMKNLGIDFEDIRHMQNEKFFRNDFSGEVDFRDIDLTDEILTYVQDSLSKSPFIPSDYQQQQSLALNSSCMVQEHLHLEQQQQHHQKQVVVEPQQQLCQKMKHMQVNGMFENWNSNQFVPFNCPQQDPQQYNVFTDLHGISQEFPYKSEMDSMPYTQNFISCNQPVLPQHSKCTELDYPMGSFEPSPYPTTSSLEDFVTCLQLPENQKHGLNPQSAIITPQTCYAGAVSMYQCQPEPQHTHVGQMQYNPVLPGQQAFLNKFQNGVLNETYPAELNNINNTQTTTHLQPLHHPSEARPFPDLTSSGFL
Description: FIG. 14 graphically represents Cypla1 mRNA fold increase with the addition of 3-IAld or Ox-3-IAld.

[3] = single-dose pharmacokinetic study in healthy C57BL/6 mice, tissues and serum by mass spectrometry

Compound: Cn1c(C(=O)O)cc2ccccc21 [1-Methylindole-2-carboxylic acid]
- serum level of methylated forms of indole-3-formic acid at 1 hour ([1]; 1 hour after 3-IAld): reduced levels
- peak serum level of methylated forms of indole-3-formic acid ([1]; at 30 minutes after 3-IAld): about 150 nM

Compound: COC(=O)c1c[nH]c2ccccc12 [Methyl indole-3-carboxylate]
- serum level of methylated forms of indole-3-formic acid at 1 hour ([1]; in vivo): reduced levels

Compound: O=C(O)c1c[nH]c2ccccc12 [indole-3-formic acid]
- pharmacological activity in vitro [2]: pharmacologically active
- induction of the AhR activation marker Cyp1A1 (mRNA) [2]: induce the AhR activation marker Cyp1A1 in a dose-dependent manner
- induction of the AhR activation marker Cyp1A1 (mRNA) ([2]; listed as Ox-3-IAld): induction of the AhR activation marker Cyp1A1 in a dose-dependent manner
- concentrations in all organs ([3]; after enteric 1ME3CA 18 mg/Kg): basal
- clearance of metabolites from the organs ([3]; after oral 3-IAld 18 mg/Kg): rapid clearance
- presence as metabolite of 3-IAld in serum and other tissues ([3]; after oral 3-IAld 18 mg/Kg): main metabolite
